# Values quoted from earlier work in US9943555B2, “Bacteria engineered to reduce hyperphenylalaninemia” (Synlogic, Inc., priority 2015, dated 2018).
# Test system: patients / subjects with phenylketonuria
compound,measurement,value
"C[C@H](O)[C@H](O)[C@H]1CNc2nc(N)[nH]c(=O)c2N1 [Kuvan, tetrahydrobiopterin]",side effects,gastritis and severe allergic reactions
